Experimental data reported in article PMC10745768, “Stereoselective Synthesis and Antiproliferative Activity of Steviol-Based Diterpene 1,3-Aminoalcohol Regioisomers” (Molecules, 2023).

Key:
[1] = tested on: NIH/3T3 fibroblast cells; test: MTT assay on non-malignant fibroblasts (selectivity); type: cell-based, murine; conditions: Mus musculus, NIH3T3, 72 h, read-out: Growth inhibition (%) ± SEM; for inhibition at 10 µM: NIH/3T3, 10 μM; for inhibition at 30 µM: NIH/3T3, 30 μM
Procedure: (§1) The in vitro anticancer effects of the presented compounds were assessed using the standard MTT [3-(4,5-dimethylthiazol2-yl)-2,5-diphenyltetrazolium bromide] assay on the following human cancer cell lines: cervical (HeLa and SiHa), breast (MCF-7 and MDA-MB-231) and ovarian cancer (A2780). The selectivity of the tested compounds was determined on murine embryonal fibroblast cells (NIH/3T3). The utilised cell lines were purchased from the European Collection of Cell Cultures (Salisbury, UK). The cells were cultivated in Eagle’s minimal essential medium supplemented with 10% fetal bovine serum, 1% non-essential amino acids and 1% antibiotic-antimycotic complex (penicillin, streptomycin, amphotericin B) at 37 °C in a humidified atmosphere containing 5% CO2. All media and supplements were purchased from Lonza Group Ltd. (Basel, Switzerland). The cancer cells were seeded into 96-well plates (5000 cells/well) and incubated overnight, and the test compounds were applied in two different concentrations (10 µM and 30 µM) and incubated for another 72 h under cell-culturing conditions. […] After 72 h, 20 µL of the 5 mg/mL MTT solution was added to each well, and the plates were incubated for 4 h. The medium was removed, and the formazan crystals produced by the mitochondrial activity were dissolved in dimethyl sulfoxide (DMSO) via shaking at 37 °C for 30 min. The absorbances were measured at 545 nm using a microplate reader (SPECTROStar Nano, BMG Labtech, Offenburg, Germany). The reference agent was cisplatin, which is a widely used cytotoxic agent. The IC50 values were calculated using sigmoid curve fitting. Two independent experiments were performed with five parallel wells for each condition. Calculations were performed using the GraphPad Prism 9 software (GraphPad Software Inc., San Diego, CA, USA).

[2] = tested on: MDA-MB-231 cells; test: MTT antiproliferative assay, MDA-MB-231; type: cell-based; conditions: Homo sapiens, 72 h, read-out: Growth inhibition (%) ± SEM; for inhibition at 10 µM: MDA-MB-231, 10 μM; for inhibition at 30 µM: MDA-MB-231, 30 μM
Procedure: as §1

[3] = tested on: human cancer cell lines (HeLa, SiHa, MCF-7, MDA-MB-231, A2780); test: MTT antiproliferative assay, panel of malignant cells; type: cell-based; conditions: 30 μM
Procedure: as §1

[4] = tested on: SiHa cells; test: MTT antiproliferative assay, SiHa; type: cell-based; conditions: Homo sapiens, 72 h, read-out: Growth inhibition (%) ± SEM
Procedure: as §1

[5] = tested on: HeLa cells; test: MTT antiproliferative assay, HeLa; type: cell-based; conditions: Homo sapiens, 72 h, read-out: Growth inhibition (%) ± SEM
Procedure: as §1

[6] = tested on: MCF-7 cells; test: MTT antiproliferative assay, MCF-7; type: cell-based; conditions: Homo sapiens, MCF7, 72 h, read-out: Growth inhibition (%) ± SEM; for inhibition at 10 µM: MCF-7, 10 μM; for inhibition at 30 µM: MCF-7, 30 μM
Procedure: as §1

[7] = tested on: A2780 cells; test: MTT antiproliferative assay, A2780; type: cell-based; conditions: Homo sapiens, 72 h, read-out: Growth inhibition (%) ± SEM; for inhibition at 10 µM: A2780, 10 μM; for inhibition at 30 µM: A2780, 30 μM
Procedure: as §1

| Compound | melting point [°C] | inhibition at 10 µM [1] [%] | inhibition at 30 µM [1] [%] | inhibition at 10 µM [2] [%] | inhibition at 30 µM [2] [%] | antiproliferative action at higher concentration (in words) [3] | inhibition at 10 µM [4] [%] | inhibition at 30 µM [4] [%] | inhibition at 10 µM [5] [%] | inhibition at 30 µM [5] [%] | inhibition at 10 µM [6] [%] | inhibition at 30 µM [6] [%] | inhibition at 10 µM [7] [%] | inhibition at 30 µM [7] [%] |
| --- | --- | --- | --- | --- | --- | --- | --- | --- | --- | --- | --- | --- | --- | --- |
| COC(=O)[C@]1(C)CCC[C@@]2(C)[C@@H]3CC[C@@]4(CO)C[C@]3(CC[C@@H]21)C[C@H]4N [Compound 6, (4R,4aS,6aR,8R,9R,11aR,11bS)-Methyl 8-amino-9-(hydroxymethyl)-4,11b-dimethyltetradecahydro-6a,9-methanocyclohepta[a]naphthalene-4-carboxylate] | 166 to 170 | 22.1 ± 1.54 | 98.27 ± 0.37 | 25.8 ± 2.49 | 97.6 ± 0.67 | pronounced cell growth inhibition | < 20 | 68.24 ± 0.61 | 23.2 ± 1.97 | 93.94 ± 0.55 | 36.4 ± 3.48 | 98.58 ± 0.22 | 24.8 ± 5.19 | 82.5 ± 4.66 |
| COC(=O)[C@]1(C)CCC[C@@]2(C)[C@@H]3CC[C@@]4(Cn5cc(Cc6ccccc6)nn5)C[C@]3(CC[C@@H]21)C[C@H]4O [Compound 36, (4R,4aS,6aR,8R,9S,11aR,11bS)-Methyl 9-((4-benzyl-1H-1,2,3-triazol-1-yl)methyl)-8-hydroxy-4,11b-dimethyltetradecahydro-6a,9-methanocyclohepta[a]naphthalene-4-carboxylate] | 112 to 114 | < 20 | 92.91 ± 0.87 | < 20 | 91.38 ± 0.65 | – | < 20 | 79.4 ± 3.17 | < 20 | 89.32 ± 0.63 | 45.9 ± 3.4 | 91.8 ± 0.74 | 29.3 ± 1.68 | 96.31 ± 0.53 |
| COC(=O)[C@]1(C)CCC[C@@]2(C)[C@@H]3CC[C@@]4(Cn5cc(Cc6ccccc6)nn5)C[C@]3(CC[C@@H]21)CC4=O [Compound 34, (4R,4aS,6aR,9S,11aR,11bS)-Methyl 9-((4-benzyl-1H-1,2,3-triazol-1-yl)methyl)-4,11b-dimethyl-8-oxotetradecahydro-6a,9-methanocyclohepta[a]naphthalene-4-carboxylate] | 172 to 176 | < 20 | 72.5 ± 0.96 | < 20 | 50.1 ± 2.41 | – | < 20 | 58.8 ± 2.24 | < 20 | 75.2 ± 1.26 | 37.5 ± 2.1 | 81.3 ± 2.02 | 31.8 ± 1.6 | 89.59 ± 0.45 |
| COC(=O)[C@]1(C)CCC[C@@]2(C)[C@@H]3CC[C@@]4(CO)C[C@]3(CC[C@@H]21)C[C@H]4N[C@@H](C)c1cccc2ccccc12 [Compound 14, (4R,4aS,6aR,8R,9R,11aR,11bS)-Methyl 9-(hydroxymethyl)-4,11b-dimethyl-8-(((S)-1-(naphthalen-1-yl)ethyl)amino)tetradecahydro-6a,9-methanocyclohepta[a]naphthalene-4-carboxylate] | 151 to 157 | 50.4 ± 2.91 | 97.15 ± 0.6 | 53.2 ± 2.44 | 95 ± 1.24 | – | 34.1 ± 2.53 | 88.88 ± 0.87 | 24.6 ± 2.79 | 95.1 ± 1.6 | 78.9 ± 4.11 | 97.44 ± 0.53 | 93.3 ± 1.99 | 99.57 ± 0.35 |
| COC(=O)[C@]1(C)CCC[C@@]2(C)[C@@H]3CC[C@@]4(CO)C[C@]3(CC[C@@H]21)C[C@H]4N[C@H](C)c1cccc2ccccc12 [Compound 13, (4R,4aS,6aR,8R,9R,11aR,11bS)-Methyl 9-(hydroxymethyl)-4,11b-dimethyl-8-(((R)-1-(naphthalen-1-yl)ethyl)amino)tetradecahydro-6a,9-methanocyclohepta[a]naphthalene-4-carboxylate] | 180 to 185 | < 20 | 96.88 ± 0.74 | < 20 | 94.3 ± 1.83 | – | 24.2 ± 3.46 | 87.9 ± 1.62 | < 20 | 92.3 ± 2.7 | 56.7 ± 3.88 | 96.84 ± 0.55 | 83.7 ± 1.95 | 99.02 ± 0.39 |

Now from value to compound, other results behind:

| melting point [°C] | Compound | inhibition at 10 µM [1] [%] | inhibition at 30 µM [1] [%] | inhibition at 10 µM [2] [%] | inhibition at 30 µM [2] [%] | antiproliferative action at higher concentration (in words) [3] | inhibition at 10 µM [4] [%] | inhibition at 30 µM [4] [%] | inhibition at 10 µM [5] [%] | inhibition at 30 µM [5] [%] | inhibition at 10 µM [6] [%] | inhibition at 30 µM [6] [%] | inhibition at 10 µM [7] [%] | inhibition at 30 µM [7] [%] |
| --- | --- | --- | --- | --- | --- | --- | --- | --- | --- | --- | --- | --- | --- | --- |
| 88 to 95 | CC[C@H](N[C@@H]1C[C@]23CC[C@H]4[C@@](C)(CCC[C@@]4(C)C(=O)OC)[C@@H]2CC[C@@]1(CO)C3)c1ccccc1 [Compound 11, (4R,4aS,6aR,8R,9R,11aR,11bS)-Methyl 9-(hydroxymethyl)-4,11b-dimethyl-8-(((S)-1-phenylpropyl)amino)tetradecahydro-6a,9-methanocyclohepta[a]naphthalene-4-carboxylate] | 22.2 ± 2.22 | 93.6 ± 2.02 | < 20 | 90.8 ± 1.35 | – | < 20 | 83.7 ± 3.19 | < 20 | 94.48 ± 0.84 | 49.5 ± 3.06 | 96.94 ± 0.57 | 74.2 ± 2.1 | 98.12 ± 0.3 |
| 64 to 68 | COC(=O)C1(C)CCCC2(C)C3CCC4(CN)CC3(CCC12)CC4O [Compound 31, (4. R,4aS,6aR,8R,9S,11aR,11bS)-Methyl 9-(aminomethyl)-8-hydroxy-4,11b-dimethyltetradecahydro-6a,9-methanocyclohepta[a]naphthalene-4-carboxylate] | < 20 | 97.62 ± 0.71 | 49.5 ± 3.47 | 96.82 ± 0.65 | – | < 20 | 95.68 ± 0.81 | < 20 | 96.02 ± 0.89 | 72.7 ± 3.15 | 99.42 ± 0.23 | 37.3 ± 1.04 | 97.52 ± 0.8 |
| 154 to 156 | COC(=O)[C@]1(C)CCC[C@@]2(C)[C@@H]3CC[C@@]4(Cn5cc(-c6ccccc6)nn5)C[C@]3(CC[C@@H]21)C[C@H]4O [Compound 35, (4R,4aS,6aR,8R,9S,11aR,11bS)-Methyl 8-hydroxy-4,11b-dimethyl-9-((4-phenyl-1H-1,2,3-triazol-1-yl)methyl)tetradecahydro-6a,9-methanocyclohepta[a]naphthalene-4-carboxylate] | 54.8 ± 1.4 | 93 ± 1.01 | < 20 | 92.44 ± 0.59 | – | < 20 | 81.4 ± 2.84 | < 20 | 88.11 ± 0.75 | 70 ± 3.11 | 88.79 ± 0.44 | 43.2 ± 1.63 | 97.37 ± 0.38 |
